Where two headings read alike, the source gives them in different places.
Legend:
[1] = molecular target: T1, isolated recombinant SARS-CoV-2 M^pro (Severe acute respiratory syndrome coronavirus 2, UniProt P0DTD1); assay: SPE-MS SARS-CoV-2 Mpro inhibition assay; format: biochemical; conditions: for IC50: SPE-MS, SARS-CoV-2 M^pro 0.05 μM, substrate peptide 2.0 μM, mean ± SD of two independent runs (n = 2); for fold increase in M^pro inhibition potency relative to γ-lactam 7: relative to 7; for fold more efficient M^pro inhibition than γ-lactam 5: relative to reported γ-lactam 5; for fold more efficient M^pro inhibition than pyrazolidinone 6: relative to reported pyrazolidinone 6
[2] = molecular target: T1, isolated recombinant SARS-CoV-2 M^pro; format: binding; conditions: for covalent reaction with M^pro (protein-observed MS): M^pro 3.0 μM, γ-lactam 15 μM, 20 mM HEPES pH 7.5, 4 h incubation
[3] = molecular target: T1, isolated recombinant SARS-CoV-2 M^pro; set-up: method as in PMID 35549342; conditions: cited from earlier work; for IC50: reported M^pro inhibition
M^pro [4] = conditions: mass spectrometric analyses; cited from earlier work
M^pro [5] = system: M^pro; set-up: method as in PMID 37866713; conditions: reported M^pro inhibition; cited from earlier work

CC(C)C1C(=O)N(S(C)(=O)=O)c2sccc21 (racemic) [16c]
IC50 ([1]; read-out: IC50): ~16 µM
fold less efficient M^pro inhibition than 16b ([1]; relative to propyl-substituted 16b): ~5 fold

CS(=O)(=O)N1C(=O)C(Cc2ccccc2)c2ccsc21 (racemic) [16d]
IC50 ([1]; read-out: IC50): ~4 µM

CS(=O)(=O)N1C(=O)C(CCC#N)c2ccsc21 (racemic) [16e]
IC50 ([1]; read-out: IC50): ~2.7 µM

C=CCC1C(=O)N(S(C)(=O)=O)c2sccc21 (racemic) [16f]
IC50 ([1]; read-out: IC50): ~3.5 µM

CS(=O)(=O)N1C(=O)C(CCC#N)c2ccsc21 (racemic) [C00007]
IC50 ([1]; read-out: IC50): 2.7 ± 0.1 µM

C=CCC1C(=O)N(S(C)(=O)=O)c2sccc21 (racemic) [C00009]
IC50 ([1]; read-out: IC50): 3.5 ± 0.2 µM

CC(C)C1C(=O)N(S(C)(=O)=O)c2sccc21 (racemic) [C00012]
IC50 ([1]; read-out: IC50): 16 ± 2 µM

CS(=O)(=O)N1C(=O)C(Cc2ccccc2)c2ccsc21 (racemic) [C00014]
IC50 ([1]; read-out: IC50): 4 ± 0.4 µM

CC1C(=O)N(S(C)(=O)=O)c2sccc21 (stereo not drawn) [16a]
fold increase in M^pro inhibition potency relative to γ-lactam 7 [1]: ~2 fold
complex observed after adding excess 24 to the M^pro:16a mixture (reversibility) ([2]; 16a with M^pro 2 h at 0 °C (1 : 5), then 24 for 3 h at 0 °C, SPE-MS): not detected
covalent reaction with the covalent M^pro:nirmatrelvir alkyne (24) complex (Cys145 blocked) ([2]; M^pro 3.0 μM pre-reacted with 24, then 16a 15 μM, 2 h): does not covalently react
covalent reaction with M^pro (protein-observed MS) [2]: react covalently

CCCC1C(=O)N(S(C)(=O)=O)c2sccc21 (stereo not drawn) [16b]
covalent reaction with M^pro (protein-observed MS) [2]: react covalently

CC1(C)C(=O)N(S(C)(=O)=O)c2sccc21 [17a]
IC50 [1]: did not inhibit

C=CCC1(CC=C)C(=O)N(S(C)(=O)=O)c2sccc21 [17b]
IC50 [1]: did not inhibit

CC(=O)N1C(=O)Cc2ccsc21 [23a]
IC50 [1]: ablated M^pro inhibition

O=C1Cc2ccsc2N1S(=O)(=O)Cc1ccccc1 [23b]
fold increase in M^pro inhibition potency relative to γ-lactam 7 [1]: ~2 fold
covalent reaction with M^pro (protein-observed MS) [2]: react covalently

O=C1Cc2ccsc2N1S(=O)(=O)c1ccccc1 [23c]
fold increase in M^pro inhibition potency relative to γ-lactam 7 [1]: ~2 fold

COc1ccc(S(=O)(=O)N2C(=O)Cc3ccsc32)cc1 [23d]
covalent reaction with M^pro (protein-observed MS) [2]: react covalently

O=C1Cc2ccsc2N1S(=O)(=O)c1ccc(C(F)(F)F)cc1 [23f]
IC50 ([1]; read-out: IC50): ~1.3 µM
fold increase in M^pro inhibition potency relative to γ-lactam 7 [1]: ~6 fold
fold more potent than γ-lactam 23c ([1]; relative to 23c): ~3 fold
fold more efficient M^pro inhibition than β-lactam 3 ([1]; relative to reported β-lactam 3): ~6 fold
fold more efficient M^pro inhibition than γ-lactam 5 [1]: ~20 fold

CS(=O)(=O)N1C(=O)Cc2ccsc21 [C00001]
IC50 ([1]; read-out: IC50): 8.5 ± 1.4 µM

CS(=O)(=O)N1C(=O)Cc2sccc21 [C00002]
IC50 ([1]; read-out: IC50): 8.4 ± 0.5 µM

CS(=O)(=O)N1C(=O)Cc2cscc21 [C00003]
IC50 ([1]; read-out: IC50): > 100 µM

CS(=O)(=O)n1c(=O)n(S(C)(=O)=O)c2cscc21 [C00004]
IC50 ([1]; read-out: IC50): > 100 µM

CS(=O)(=O)N1C(=O)Cc2ccccc21 [C00005]
IC50 ([1]; read-out: IC50): > 100 µM

CC1C(=O)N(S(C)(=O)=O)c2sccc21 (stereo not drawn) [C00006]
IC50 ([1]; read-out: IC50): 3.9 ± 0.1 µM

CC1(C)C(=O)N(S(C)(=O)=O)c2sccc21 [C00008]
IC50 ([1]; read-out: IC50): > 100 µM

CCCC1C(=O)N(S(C)(=O)=O)c2sccc21 (stereo not drawn) [C00010]
IC50 ([1]; read-out: IC50): 3.2 ± 0.8 µM

C=CCC1(CC=C)C(=O)N(S(C)(=O)=O)c2sccc21 [C00011]
IC50 ([1]; read-out: IC50): > 100 µM

CS(=O)(=O)N1C(=O)C2(CC=CC2)c2ccsc21 [C00013]
IC50 ([1]; read-out: IC50): 61 ± 4 µM

CS(=O)(=O)N1C(=O)C2(CC=CC2)c2sccc21 [C00015]
IC50 ([1]; read-out: IC50): > 100 µM

CS(=O)(=O)N1C(=O)Cc2ccsc21 [C00017]
IC50 ([1]; read-out: IC50): 8.5 ± 1.4 µM

CC(=O)N1C(=O)Cc2ccsc21 [C00018]
IC50 ([1]; read-out: IC50): > 100 µM

O=C1Cc2ccsc2N1S(=O)(=O)Cc1ccccc1 [C00019]
IC50 ([1]; read-out: IC50): 4.3 ± 0.1 µM

O=C1Cc2ccsc2N1S(=O)(=O)c1ccccc1 [C00020]
IC50 ([1]; read-out: IC50): 4.7 ± 1.1 µM

COc1ccc(S(=O)(=O)N2C(=O)Cc3ccsc32)cc1 [C00021]
IC50 ([1]; read-out: IC50): 2.7 ± 0.2 µM

O=C1Cc2ccsc2N1S(=O)(=O)c1ccc([N+](=O)[O-])cc1 [C00022]
IC50 ([1]; read-out: IC50): 4.4 ± 0.7 µM

O=C1Cc2ccsc2N1S(=O)(=O)c1ccc(C(F)(F)F)cc1 [C00023]
IC50 ([1]; read-out: IC50): 1.3 ± 0.1 µM

CC1(C)C(C(=O)OCc2ccccc2)N2C(=O)C(NC(=O)COc3ccccc3)C2S1(=O)=O (stereo not drawn) [compound 3, penicillin V sulfone benzyl ester]
IC50 [3]: ~6.6 µM
covalent reaction with M^pro (reported) (M^pro [4]): covalent reaction of its β-lactam with the active site Cys145

CC1(C)C(C(=O)OCc2ccccc2)N2C(=O)C(NC(=O)COc3ccccc3)CC2S1(=O)=O (stereo not drawn) [compound 5]
fold less efficient M^pro inhibition than β-lactam 3 ([3]; relative to β-lactam 3): ~4 fold
IC50 [3]: ~26.1 µM
covalent reaction with M^pro (reported) (M^pro [4]): did not react to form a stable acyl–enzyme complex

O=C(O)C1=C(C(=O)N(Cc2ccccc2)Cc2ccccc2)CN2C[C@H](NC(=O)[C@H](Cc3ccccc3)NC(=O)c3cc4ccccc4[nH]3)C(=O)N12 [compound 6]
IC50 (M^pro [5]): ~45 µM

CS(=O)(=O)N1C(=O)Cc2ccsc21 [compound 7]
IC50 ([1]; read-out: IC50): ~8.5 µM
fold more efficient M^pro inhibition than pyrazolidinone 6 [1]: ~5 fold
fold more efficient M^pro inhibition than γ-lactam 5 [1]: ~3 fold
covalent reaction with M^pro (protein-observed MS) [2]: react covalently

CS(=O)(=O)N1C(=O)Cc2sccc21 [compound 8]
IC50 ([1]; read-out: IC50): ~8.4 µM
fold more efficient M^pro inhibition than pyrazolidinone 6 [1]: ~5 fold
fold more efficient M^pro inhibition than γ-lactam 5 [1]: ~3 fold
covalent reaction with M^pro (protein-observed MS) [2]: react covalently

CS(=O)(=O)N1C(=O)Cc2cscc21 [compound 9]
IC50 [1]: did not inhibit

CS(=O)(=O)n1c(=O)n(S(C)(=O)=O)c2cscc21 [compound 10]
IC50 [1]: did not result in inhibition

CS(=O)(=O)N1C(=O)Cc2ccccc21 [compound 11]
IC50 [1]: did not inhibit

CS(=O)(=O)N1C(=O)C2(CC=CC2)c2ccsc21 [compound 18]
IC50 [1]: did not efficiently inhibit

CS(=O)(=O)N1C(=O)C2(CC=CC2)c2sccc21 [compound 19]
IC50 [1]: did not efficiently inhibit

— article PMC11110133, “Thiophene-fused γ-lactams inhibit the SARS-CoV-2 main protease via reversible covalent acylation” (Chemical Science, 2024)
